US12435060B2, “Acylamino bridged heterocyclic compound, and composition and application thereof” (BEIJING SCITECH-MQ PHARMACEUTICALS LIMITED, priority 2019, dated 2025)

What follows are molecules tested on HT29 cells (assay: Inhibition of cell necrosis (CCK8 method), induced programmed necrosis of HT29 cells). Details: Homo sapiens, HT-29; rescue from necrosis induced by TNF-α 20 ng/mL, AT-406 1 μM, Z-VAD-FMK 20 μM; 16-20 hours; CCK-8, OD 450 nm.
Assay type: cell-based
Method in brief: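 Rescue from programmed necrosis was scored by CCK-8 absorbance at 450 nm after 16-20 h of TNF-α (20 ng/mL), AT-406 (1 μM) and Z-VAD-FMK (20 μM) at 37 °C, 5% CO2. HT29 cells had received compound 30 min earlier across nine 4-fold dilutions (top 25000 nM final). IC50 came from % inhibition relative to uninduced and induced-only wells.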
`CCOc1ccc(C)nc1-c1ccnc(NC(=O)c2nnc(Cc3ccccc3)[nH]2)c1` [Example 62, 5-benzyl-N-(3-ethoxy-6-methyl-[2,4′-bipyridin]-2′-yl)-4H-1,2,4-triazole-3-carboxamide] was tested, and the IC50 was over 10000 nM.
In the case of `CCOc1ccccc1-c1ccnc(NC(=O)c2nnc(Cc3ccccc3)[nH]2)c1` [Example 4, 5-benzyl-N-(4-(2-ethoxyphenyl)pyridin-2-yl)-4H-1,2,4-triazole-3-carboxamide], the IC50 is reported as 1000 to 10000 nM.
With `Cc1cnc(NC(=O)c2nnc(Cc3ccccc3F)[nH]2)cc1-c1cc(OCC2CCOCC2)ccc1Cl` [Example 426, N-(4-(2-chloro-5-((tetrahydro-2H-pyran-4-yl)methoxy)phenyl)-5-methylpyridin-2-yl)-5-(2-fluorobenzyl)-4H-1,2,4-triazole-3-carboxamide] the IC50 was 100 to 1000 nM.
Molecule `O=C(Nc1cc(-c2cc(OCC3CCOCC3)ccc2Cl)ccn1)c1nnc(Cc2ccccc2F)[nH]1` [Example 400, 5-(2-fluorobenzyl)-N-(4-(2-chloro-5-((tetrahydro-2H-pyran-4-yl)methoxy)phenyl)pyridin-2-yl)-4H-1,2,4-triazole-3-carboxamide] has an IC50 of at most 100 nM.
Molecule `CCOc1ccc(Cl)c(-c2ccnc(NC(=O)c3nnc(Cc4ccccc4)[nH]3)c2)c1` [Example 106, 5-benzyl-N-(4-(2-chloro-5-ethoxyphenyl)pyridin-2-yl)-4H-1,2,4-triazole-3-carboxamide] has an IC50 of 1000 to 10000 nM.
For `CCOc1nc(-c2ccnc(NC(=O)c3nnc(Cc4ccccc4)[nH]3)c2)ccc1C` [Example 53, 5-benzyl-N-(6-ethoxy-5-methyl-[2,4′-bipyridin]-2′-yl)-4H-1,2,4-triazole-3-carboxamide], the IC50 was over 10000 nM.
`COCCCOc1ccc(C)c(-c2ccnc(NC(=O)c3nnc(C(C)c4ccccc4)[nH]3)c2)c1` (stereo not shown) [Example 142, N-(4-(5-(3-methoxypropoxy)-2-methylphenyl)pyridin-2-yl)-5-(1-phenylethyl)-4H-1,2,4-triazole-3-carboxamide] was tested, and the IC50 was 100 to 1000 nM.
Molecule `Cc1ccc(OCCOC(C)(C)C)cc1-c1ccnc(NC(=O)c2nnc(CC3CCCCC3)[nH]2)c1` [Example 77, N-(4-(5-(2-(tert-butoxy)ethoxy)-2-methylphenyl)pyridin-2-yl)-5-(cyclohexylmethyl)-4H-1,2,4-triazole-3-carboxamide] has an IC50 of at most 100 nM.
`Cc1ccc(OCCCC(C)(C)O)cc1-c1ccnc(NC(=O)c2nnc(CC3CCCCCC3)[nH]2)c1` [Example 222, 5-(cycloheptylmethyl)-N-(4-(5-((4-hydroxy-4-methylpentyl)oxy)-2-methylphenyl)pyridin-2-yl)-4H-1,2,4-triazole-3-carboxamide] showed an IC50 of at most 100 nM.
Work on `Cc1ccc(OCCCC(C)(C)O)cc1-c1cc(NC(=O)c2nnc(CC3CCCC3)[nH]2)ncn1` [Example 439, 5-(cyclopentylmethyl)-N-(6-(5-((4-hydroxy-4-methylpentyl)oxy)-2-methylphenyl)pyrimidin-4-yl)-4H-1,2,4-triazole-3-carboxamide] yielded an IC50 of at most 100 nM.
With `CCC(O)(CC)CCCOc1ccc(F)c(-c2cc(NC(=O)c3nnc(Cc4ccccc4F)[nH]3)ncc2Cl)c1` [Example 323, N-(5-chloro-4-(5-((4-ethyl-4-hydroxyhexyl)oxy)-2-fluorophenyl)pyridin-2-yl)-5-(2-fluorobenzyl)-4H-1,2,4-triazole-3-carboxamide] the IC50 was 100 to 1000 nM.
With `CCC(O)(CC)CCCOc1ccc(C)c(-c2ccnc(NC(=O)c3nnc(CC4CCCC4)[nH]3)c2)c1` [Example 166, 5-(cyclopentylmethyl)-N-(4-(5-((4-ethyl-4-hydroxyhexyl)oxy)-2-methylphenyl)pyridin-2-yl)-4H-1,2,4-triazole-3-carboxamide] the IC50 was at most 100 nM.
Molecule `COCCCOc1ccc(C)c(-c2ccnc(NC(=O)c3nnc(CC4CCCCC4)[nH]3)c2)c1` [Example 145, 5-(cyclohexylmethyl)-N-(4-(5-(3-methoxypropoxy)-2-methylphenyl)pyridin-2-yl)-4H-1,2,4-triazole-3-carboxamide] has an IC50 of at most 100 nM.
`Cn1nc(C(F)(F)F)cc1-c1ccnc(NC(=O)c2nnc(Cc3ccccc3)[nH]2)c1` [Example 28, 5-benzyl-N-(4-(1-methyl-3-(trifluoromethyl)-1H-pyrazol-5-yl)pyridin-2-yl)-4H-1,2,4-triazole-3-carboxamide] showed an IC50 of 1000 to 10000 nM.
Molecule `O=C(Nc1cc(-c2cc(OCCCCO)ccc2Cl)ccn1)c1nnc(CC2CCCC2)[nH]1` [Example 373, N-(4-(2-chloro-5-(4-hydroxybutoxy)phenyl)pyridin-2-yl)-5-(cyclopentylmethyl)-4H-1,2,4-triazole-3-carboxamide] has an IC50 of at most 100 nM.
`CC(C)(O)CCCOc1ccc(Cl)c(-c2cc(NC(=O)c3nnc(Cc4ccccc4F)[nH]3)ncc2Cl)c1` [Example 411, N-(5-chloro-4-(2-chloro-5-((4-hydroxy-4-methylpentyl)oxy)phenyl)pyridin-2-yl)-5-(2-fluorobenzyl)-4H-1,2,4-triazole-3-carboxamide] was tested, and the IC50 was 100 to 1000 nM.
Molecule `Cc1ccc(OCCCC(C)(C)O)cc1-c1ccnc(NC(=O)c2nnc(Cc3ccc(F)c(F)c3)[nH]2)c1` [Example 192, 5-(3,4-difluorobenzyl)-N-(4-(5-((4-hydroxy-4-methylpentyl)oxy)-2-methylphenyl)pyridin-2-yl)-4H-1,2,4-triazole-3-carboxamide] has an IC50 of at most 100 nM.
For `Cc1ccc(OCCCC(C)(C)O)cc1-c1cc(NC(=O)c2nnc(Cc3cccc(Cl)c3F)[nH]2)ncn1` [Example 438, 5-(3-chloro-2-fluorobenzyl)-N-(6-(5-((4-hydroxy-4-methylpentyl)oxy)-2-methylphenyl)pyrimidin-4-yl)-4H-1,2,4-triazole-3-carboxamide], the IC50 was 100 to 1000 nM.
`O=C(Nc1cc(-c2cc(OCCC3CCOCC3)ccc2Cl)ncn1)c1nnc(CC2CCCC2)[nH]1` [Example 472, N-(6-(2-chloro-5-(2-(tetrahydro-2H-pyran-4-yl)ethoxy)phenyl)pyrimidin-4-yl)-5-(cyclopentylmethyl)-4H-1,2,4-triazole-3-carboxamide] showed an IC50 of at most 100 nM.
In the case of `COCCCOc1cccc(-c2ccnc(NC(=O)c3nnc(Cc4ccccc4)[nH]3)c2)c1C` [Example 98, 5-benzyl-N-(4-(3-(3-methoxypropoxy)-2-methylphenyl)pyridin-2-yl)-4H-1,2,4-triazole-3-carboxamide], the IC50 is reported as 100 to 1000 nM.
In the case of `CC(C)(O)CCCOc1ccc(Cl)c(-c2cc(NC(=O)c3nnc(CC4CCCCC4)[nH]3)ncn2)c1` [Example 465, 5-(cyclohexylmethyl)-N-(6-(2-chloro-5-((4-hydroxy-4-methylpentyl)oxy)phenyl)pyrimidin-4-yl)-4H-1,2,4-triazole-3-carboxamide], the IC50 is reported as at most 100 nM.
`Cc1ccc(OCCCC(C)(C)O)cc1-c1ccnc(NC(=O)c2nnc(Cc3ccc(F)c(Cl)c3)[nH]2)c1` [Example 206, 5-(3-chloro-4-fluorobenzyl)-N-(4-(5-((4-hydroxy-4-methylpentyl)oxy)-2-methylphenyl)pyridin-2-yl)-4H-1,2,4-triazole-3-carboxamide] showed an IC50 of 100 to 1000 nM.
For `CC(C)(O)CCCOc1ccc(C(F)(F)F)c(-c2ccnc(NC(=O)c3nnc(CC4CCCCC4)[nH]3)c2)c1` [Example 259, 5-(cyclohexylmethyl)-N-(4-(5-((4-hydroxy-4-methylpentyl)oxy)-2-(trifluoromethyl)phenyl)pyridin-2-yl)-4H-1,2,4-triazole-3-carboxamide], the IC50 was at most 100 nM.
Molecule `CCC(O)(CC)CCCOc1ccc(C)c(-c2cc(NC(=O)c3nnc(CC4CCCCC4)[nH]3)ncc2Cl)c1` [Example 245, N-(5-chloro-4-(5-((4-ethyl-4-hydroxyhexyl)oxy)-2-methylphenyl)pyridin-2-yl)-5-(cyclohexylmethyl)-4H-1,2,4-triazole-3-carboxamide] has an IC50 of at most 100 nM.
In the case of `O=C(Nc1cc(-c2cc(OCC3CCOCC3)ccc2Cl)ncn1)c1nnc(CC2CCCC2)[nH]1` [Example 468, 5-(cyclopentylmethyl)-N-(6-(2-chloro-5-((tetrahydro-2H-pyran-4-yl)methoxy)phenyl)pyrimidin-4-yl)-4H-1,2,4-triazole-3-carboxamide], the IC50 is reported as at most 100 nM.
`Cc1ccc(OCCCC(C)(C)O)cc1-c1cc(NC(=O)c2nnc(Cc3ccc(F)cc3F)[nH]2)ncn1` [Example 435, 5-(2,4-difluorobenzyl)-N-(6-(5-((4-hydroxy-4-methylpentyl)oxy)-2-methylphenyl)pyrimidin-4-yl)-4H-1,2,4-triazole-3-carboxamide] gave an IC50 of at most 100 nM.
For `Cc1ccc(OCCC2CCOCC2)cc1-c1cc(NC(=O)c2nnc(CC3CCCCC3)[nH]2)ncn1` [Example 448, 5-(cyclohexylmethyl)-N-(6-(2-methyl-5-(2-(tetrahydro-2H-pyran-4-yl)ethoxy)phenyl)pyrimidin-4-yl)-4H-1,2,4-triazole-3-carboxamide], the IC50 was at most 100 nM.
Molecule `CC(C)(O)COc1ccc(Cl)c(-c2ccnc(NC(=O)c3nnc(CC4CCCCC4)[nH]3)c2)c1` [Example 366, N-(4-(2-chloro-5-(2-hydroxyl-2-methylpropoxy)phenyl)pyridin-2-yl)-5-(cyclohexylmethyl)-4H-1,2,4-triazole-3-carboxamide] has an IC50 of at most 100 nM.
`O=C(Nc1cc(-c2cc(OCCC3CCOCC3)ccc2Cl)ncn1)c1nnc(Cc2ccccc2)[nH]1` [Example 470, 5-benzyl-N-(6-(2-chloro-5-(2-(tetrahydro-2H-pyran-4-yl)ethoxy)phenyl)pyrimidin-4-yl)-4H-1,2,4-triazole-3-carboxamide] gave an IC50 of at most 100 nM.
In the case of `Cc1ccc(OCCC2CCCCCC2)cc1-c1ccnc(NC(=O)c2nnc(Cc3ccccc3)[nH]2)c1` [Example 225, 5-benzyl-N-(4-(5-(2-cycloheptylethoxy)-2-methylphenyl)pyridin-2-yl)-4H-1,2,4-triazole-3-carboxamide], the IC50 is reported as at most 100 nM.
For `CCOCCOc1ccc(Cl)c(-c2ccnc(NC(=O)c3nnc(Cc4ccccc4)[nH]3)c2)c1` [Example 383, 5-benzyl-N-(4-(2-chloro-5-(2-ethoxyethoxy)phenyl)pyridin-2-yl)-4H-1,2,4-triazole-3-carboxamide], the IC50 was at most 100 nM.
